Test results: patent US9168247B2, “Beta carboline derivatives useful in the treatment of proliferative disorders” (FACULTES UNIVERSITAIRES NOTRE DAME DE LA PAIX, priority 2010, dated 2015)
Read-outs that look alike come from different tables or passages of the source.

Legend:
[1] = test system: human cancer cell lines (U373, T98G, Hs683, OE21, OE33); assay: MTT test, mean over the cancer cell lines; assay type: cell-based
Procedure, shortened: (§1)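 Glioma (Hs683, T98G, U373) and oesophageal (OE21, OE33) lines seeded at 5,000–8,000 cells/well, treated 24 h later with compound at 1×10^−8 to 1×10^−4 M for 72 h at 37 °C, in sestuplicate.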

U373 cells = assay: Cellular imaging (videomicroscopy) of cultured U373 cells: antiproliferative class and global growth ratio; assay type: cell-based, human; set-up: key to Anti proliferative class / anti-proliferative class-GGR: class I: actually cytostatic for 3 days (<10% of cell death at the 3rd day); class II: cyctostatic but becomes cytotoxic with <10% cell death on the 2nd day, and >20% of cell death on the 3rd day; class III: cytostatic but rapidly becomes cytotoxic with <10% cell death on the 1st day, >20% of cell death on the 2nd day and >50% of cell death on the 3rd day; class IV: cytotoxic (>50% of cell death on the first day); details: for global growth ratio (GGR): GG treated cells/GG control cells, 72 h after drug addition, drug at its IC50 (MTT-test determined); for anti-proliferative class-GGR: Table 4; for Anti proliferative class: cellular imaging of cultured U373 cells over three consecutive days
Procedure, shortened: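 U373-MG glioma cells seeded at low density, exposed or not to compound […], filmed by videomicroscopy for 72 h, in quadruplicate. Cells counted on first (0 h) and last (72 h) images; GGR = final/initial count, reported as GGR treated/GGR control.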

Hs683 glioma cells = assay: MTT test, overall cell growth, Hs683; assay type: cell-based, human
Procedure, shortened: as §1

[2] = test system: OE33 oesophageal cancer cells; assay: MTT test, overall cell growth, OE33; assay type: cell-based, human
Procedure, shortened: as §1

[3] = Table 4, mean over cell lines, read-out: IC50 μM growth inhibition (MTT test)
[4] = mean over the cancer cell lines, MTT test, read-out: IC50 Mean ± SEM
[5] = Homo sapiens, Table 4, mean over cell lines, read-out: IC50 μM growth inhibition (MTT test)
[6] = Homo sapiens, mean over the cancer cell lines, MTT test, read-out: IC50 Mean ± SEM
[7] = Homo sapiens, Hs 683, 72 hours of incubation
[8] = Homo sapiens, OE33, 72 hours of incubation

IC50 [1, 5]	IC50 [1, 6]	IC50 (Hs683 glioma cells; [7])	IC50 [2, 8]	Compound	IC50 [1, 3]	IC50 [1, 4]	global growth ratio (GGR) (U373 cells)	anti-proliferative class-GGR (U373 cells)	Anti proliferative class (U373 cells)	IC50 (Hs683 glioma cells; 72 hours of incubation)	IC50 ([2]; 72 hours of incubation)
				COCCOc1ccc2c(c1)[nH]c1c(C)nccc12 [JR220]	60 µM	60 ± 3 µM	0.2	(I) (class I: actually cytostatic for 3 days (<10% of cell death at the 3rd day))	I (class I: actually cytostatic for 3 days (<10% of cell death at the 3rd day))	53 ± 6 µM	66 ± 3 µM
				Cc1nccc2c1[nH]c1cc(OCc3cccnc3)ccc12 [JR212]	29 µM	29 ± 1 µM	0.3	(I) (class I: actually cytostatic for 3 days (<10% of cell death at the 3rd day))	I (class I: actually cytostatic for 3 days (<10% of cell death at the 3rd day))	30 ± 3 µM	31 ± 2 µM
0.7 µM	0.7 ± 0.2 µM	0.49 ± 0.05 µM	0.7 ± 0.1 µM	Cc1c2c(cc[n+]1Cc1ccccc1)c1ccc(OCc3ccccc3)cc1n2Cc1ccccc1.[Br-] [CV21/JR95, 1-methyl-2-benzyl-7-benzyloxy-9-benzyl-β-carbolin-2-ium bromide]			0.4	(I) (class I: actually cytostatic for 3 days (<10% of cell death at the 3rd day))	I (class I: actually cytostatic for 3 days (<10% of cell death at the 3rd day))		
31 µM	31 ± 4 µM	33 ± 1 µM	40 ± 4 µM	Cc1nccc2c3ccc(OCc4ccccc4)cc3n(Cc3ccccc3)c12 [CV9/JR84, 1-methyl-7-benzyloxy-9-benzyl-β-carboline]			0.3	(II)	II		
